Measurements reported in ChEMBL document CHEMBL5724914, “Linking interpersonal differences in gut microbiota composition and drug biotransformation activity” (2024).

What was measured:
[1] = (§1) The drug is tested on Z-012 corresponding to metagenome with ENA study accession number: PRJEB37062 and ENA sample accession number: ERS12561812 for biotransformation under anaerobic condition. The drug concentrations were measured over 9 timepoints collected between 0 and 24 hours of incubation by liquid-chromatography-coupled mass spectrometry (LC–MS); conditions: 2 µM
[2] = (§2) The drug is tested on Z-029 corresponding to rat gut metagenome with ENA study accession number: PRJEB37062 and ENA sample accession number: ERS12561828 for biotransformation under anaerobic condition. The drug concentrations were measured over 9 timepoints collected between 0 and 24 hours of incubation by liquid-chromatography-coupled mass spectrometry (LC–MS); conditions: 2 µM
[3] = as §2, with “on WLS-010” for “on Z-029”, “to human” for “to rat”, “number: ERS12561743” for “number: ERS12561828”; conditions: 2 µM
[4] = human gut metagenome, 24 h, 2 µM
[5] = as §2, with “on Z-022” for “on Z-029”, “to mouse” for “to rat”, “number: ERS12561821” for “number: ERS12561828”; conditions: 2 µM
[6] = human gut metagenome, 24 h, 2 µM; remark: listed apart in the source
[7] = as §2, with “on Z-002” for “on Z-029”, “to rabbit” for “to rat”, “number: ERS12561802” for “number: ERS12561828”; conditions: 2 µM
[8] = as §2, with “on WLS-082” for “on Z-029”, “to human” for “to rat”, “number: ERS12561751” for “number: ERS12561828”; conditions: 2 µM
[9] = as §1, with “Z-004” for “Z-012”, “ERS12561804” for “ERS12561812”; conditions: 2 µM
Further: call rule not given here.

Structure (SMILES) | Bacterial Biotransformation [1] | Bacterial Biotransformation [2] | Bacterial Biotransformation [3] | Bacterial Biotransformation [4] | Bacterial Biotransformation [5] | Bacterial Biotransformation [6] | Bacterial Biotransformation [7] | Bacterial Biotransformation [8] | Bacterial Biotransformation [9]
O=C1CC2(CCCC2)CC(=O)N1CCCCN1CCN(c2ncccn2)CC1 [BUSPIRONE] | Compound NOT metabolized | Compound NOT metabolized | Compound NOT metabolized | Compound NOT metabolized | Compound NOT metabolized | Compound metabolized | Compound metabolized | Compound NOT metabolized | Compound NOT metabolized
CCCC(C)(COC(N)=O)COC(=O)NC(C)C (stereo unspecified) [CARISOPRODOL] | Compound metabolized | Compound NOT metabolized | Compound metabolized | Compound metabolized | Compound metabolized | Compound NOT metabolized | Compound metabolized | Compound metabolized | Compound metabolized
COc1ccccc1OCCNCC(O)COc1cccc2[nH]c3ccccc3c12 (stereo unspecified) [CARVEDILOL] | Compound NOT metabolized | Compound NOT metabolized | Compound metabolized | Compound NOT metabolized | Compound NOT metabolized | Compound metabolized | Compound NOT metabolized | Compound metabolized | Compound NOT metabolized
CN1CCC[C@@H]1CCO[C@](C)(c1ccccc1)c1ccc(Cl)cc1.O=C(O)/C=C/C(=O)O [CLEMASTINE FUMARATE] | Compound NOT metabolized | Compound NOT metabolized | Compound NOT metabolized | Compound metabolized | Compound NOT metabolized | Compound metabolized | Compound NOT metabolized | Compound NOT metabolized | Compound NOT metabolized
CC(C)(C)NCC(O)c1cc(Cl)c(N)c(Cl)c1 (stereo unspecified) [CLENBUTEROL] | Compound NOT metabolized | Compound NOT metabolized | Compound NOT metabolized | Compound NOT metabolized | Compound NOT metabolized | Compound NOT metabolized | Compound NOT metabolized | Compound NOT metabolized | Compound NOT metabolized
C[N+]12CCC(CC1)C(OC(=O)C(O)(c1ccccc1)c1ccccc1)C2.[Br-] (stereo unspecified) [CLIDINIUM BROMIDE] | Compound NOT metabolized | Compound NOT metabolized | Compound NOT metabolized | Compound metabolized | Compound NOT metabolized | Compound metabolized | Compound NOT metabolized | Compound NOT metabolized | Compound NOT metabolized
Clc1cccc(Cl)c1N=C1NCCN1 [CLONIDINE] | Compound metabolized | Compound NOT metabolized | Compound metabolized | Compound NOT metabolized | Compound NOT metabolized | Compound metabolized | Compound metabolized | Compound NOT metabolized | Compound metabolized
COC(=O)[C@H](c1ccccc1Cl)N1CCc2sccc2C1.O=S(=O)(O)O [CLOPIDOGREL BISULFATE] | Compound metabolized | Compound NOT metabolized | Compound metabolized | Compound metabolized | Compound metabolized | Compound metabolized | Compound metabolized | Compound metabolized | Compound metabolized
O=P1(N(CCCl)CCCl)NCCCO1 (stereo unspecified) [CYCLOPHOSPHAMIDE ANHYDROUS] | Compound NOT metabolized | Compound NOT metabolized | Compound NOT metabolized | Compound NOT metabolized | Compound NOT metabolized | Compound metabolized | Compound NOT metabolized | Compound metabolized | Compound metabolized
Br.COc1ccc2c(c1)[C@]13CCCC[C@@H]1[C@H](C2)N(C)CC3.O [DEXTROMETHORPHAN HYDROBROMIDE] | Compound NOT metabolized | Compound NOT metabolized | Compound metabolized | Compound NOT metabolized | Compound NOT metabolized | Compound metabolized | Compound metabolized | Compound NOT metabolized | Compound metabolized
CC(=O)Nc1ccc(OC(C)=O)cc1 [DIACETAMATE] | Compound metabolized | Compound metabolized | Compound metabolized | Compound metabolized | Compound metabolized | Compound metabolized | Compound metabolized | Compound metabolized | Compound metabolized
CCN(CC)CCOC(=O)C1(C2CCCCC2)CCCCC1 [DICYCLOMINE] | Compound metabolized | Compound NOT metabolized | Compound metabolized | Compound NOT metabolized | Compound metabolized | Compound metabolized | Compound metabolized | Compound metabolized | Compound NOT metabolized
COc1ccc([C@@H]2Sc3ccccc3N(CCN(C)C)C(=O)[C@@H]2OC(C)=O)cc1 [DILTIAZEM] | Compound metabolized | Compound NOT metabolized | Compound metabolized | Compound metabolized | Compound metabolized | Compound metabolized | Compound metabolized | Compound metabolized | Compound metabolized
OCCN(CCO)c1nc(N2CCCCC2)c2nc(N(CCO)CCO)nc(N3CCCCC3)c2n1 [DIPYRIDAMOLE] | Compound NOT metabolized | Compound NOT metabolized | Compound metabolized | Compound metabolized | Compound metabolized | Compound metabolized | Compound metabolized | Compound NOT metabolized | Compound NOT metabolized
COc1cc2nc(N3CCN(C(=O)C4COc5ccccc5O4)CC3)nc(N)c2cc1OC.CS(=O)(=O)O (stereo unspecified) [DOXAZOSIN MESYLATE] | Compound NOT metabolized | Compound NOT metabolized | Compound metabolized | Compound metabolized | Compound metabolized | Compound metabolized | Compound NOT metabolized | Compound metabolized | Compound NOT metabolized
CN(C)CCOC(C)(c1ccccc1)c1ccccn1.O=C(O)CCC(=O)O (stereo unspecified) [DOXYLAMINE SUCCINATE] | Compound NOT metabolized | Compound NOT metabolized | Compound NOT metabolized | Compound NOT metabolized | Compound NOT metabolized | Compound NOT metabolized | Compound NOT metabolized | Compound NOT metabolized | Compound NOT metabolized
Br.CN1CCC[C@@H]1Cc1c[nH]c2ccc(CCS(=O)(=O)c3ccccc3)cc12 [ELETRIPTAN HYDROBROMIDE] | Compound NOT metabolized | Compound NOT metabolized | Compound metabolized | Compound NOT metabolized | Compound NOT metabolized | Compound metabolized | Compound metabolized | Compound NOT metabolized | Compound NOT metabolized
CCOc1ccc2nc(S(N)(=O)=O)sc2c1 [ETHOXZOLAMIDE] | Compound NOT metabolized | Compound NOT metabolized | Compound NOT metabolized | Compound NOT metabolized | Compound NOT metabolized | Compound NOT metabolized | Compound NOT metabolized | Compound NOT metabolized | Compound NOT metabolized
CC(=O)OCC(CCn1cnc2cnc(N)nc21)COC(C)=O [FAMCICLOVIR] | Compound NOT metabolized | Compound NOT metabolized | Compound metabolized | Compound metabolized | Compound NOT metabolized | Compound metabolized | Compound metabolized | Compound metabolized | Compound NOT metabolized
